Article PMC11721939, “Novel tetrahydronaphthalen-1-yl-phenethyl ureas: synthesis and dual antibacterial-anticancer activities” (Journal of Enzyme Inhibition and Medicinal Chemistry, 2023)
Values after ≈ are worked out from the molar mass of the structure shown. Read-outs that look alike come from different tables or passages of the source.

What was measured:
[1] = tested on: HeLa cells; details: read-out: Cytotoxic activity IC50, cisplatin positive control; cited from earlier work
[2] = tested on: SH-SY5Y cells; details: read-out: Cytotoxic activity IC50, cisplatin positive control; cited from earlier work
[3] = tested on: PCS-201-012 cells; set-up: method as in PMID 27488500; details: fibroblast cells (PCS-201-012 column), cisplatin; read-out: Cytotoxic activity IC50; cited from earlier work
[4] = tested on: all tested bacterial strains; test: Antibacterial activity (MIC) summarised over all tested bacterial strains; format: cell-based; details: against the studied bacteria
Procedure: (§1) The bacteria employed for evaluation included Acinetobacter baumannii ATCC 1605, Enterococcus faecalis ATCC 49452, Pseudomonas aeruginosa ATCC 9027, and Staphylococcus aureus MRSA ATCC 43300. These strains were sourced from the Molecular Biology and Genetics Laboratory at Erzurum Technical University. They were immersed in Mueller-Hinton Broth (MHB) and then incubated at a temperature of 37 °C for a duration of 16–24 h.
Bacteria were adjusted to a McFarland standardisation of 0.5, equivalent to a cell density of 1.5 × 10^8/ml, and were then introduced into MHB. Subsequently, a 100 μl volume of this bacterial mixture was spread onto Mueller-Hinton agar plates. Sterile empty discs were then treated with the formulated ureas at concentrations of 1000, 500, and 250 µM. Oflaxin ([…]) and netilmicin ([…]) were used as positive controls, while DMSO served as the negative control. The plates were then placed in an incubator at 37 °C for a period ranging from 24 to 72 h, depending on the optimal conditions. Post incubation, the diameter of the inhibition zones was gauged to determine the antibacterial efficacy. […]
The synthesised ureas’ minimum inhibitory concentrations (MICs) against the bacterial samples were ascertained using the microdilution broth technique. […] Post incubation, the growth of the bacteria was assessed at 600 nm using the Fluoroskan Ascent® FL. […]

[5] = WST-8 cytotoxicity assay; format: cell-based, human; details: human, SH-SY5Y cells, SH-SY5Y, 48 h, read-out: Cell viability
Procedure: (§2) The cells in culture were frequently sub-cultured, about 2–3 times weekly, until they reached a confluence of 80–90%. The experiments were organised into seven cell groups as follows: group I served as the control, while groups II through VII were pre-treated with varying dosages of the synthesised ureas (ranging from 12.5 µM to 500 µM). The cytotoxic potential of these ureas was assessed in vitro using the Cell Viability Detection Kit-8 (CVDK-8, Ecotech Biotechnology, Erzurum, Turkey), a method based on WST-8 quantification for human primary dermal fibroblasts and cervical cancer cells. Healthy fibroblast, HeLa, and SH-SY5Y cells were allocated in 96-well plates, with each well containing 5 × 10^3 cells in 100 µL of DMEM:F12 (supplemented with 1% penicillin/streptomycin and 10% FBS). After an overnight growth, these cells were exposed to specified concentrations of the synthesised ureas for a duration of 48 h at 37 °C in a 5% CO2 atmosphere. Cisplatin acted as the positive control with concentration gradients of 0–250 µM for HeLa cells and 0–20 µM for the SH-SY5Y cells. Post incubation, in sterile, dimly lit conditions, 10% WST-8 solution was added to every well and further incubated at 37 °C within 5% CO2 for another 3–4 h. The optical density of the 96-well plate was gauged at a 450 nm wavelength using a spectrophotometer (BioTek, EPOCH, Santa Clara, CA). The control group’s main purpose was to measure the absorbance of just the cells and the growth medium.

[6] = tested on: HeLa cells; test: WST-8 cytotoxicity assay; format: cell-based, human; details: for IC50: Homo sapiens, HeLa cells, 48 h, WST-8, n = 4, read-out: Cytotoxic activity IC50; for SI value (HeLa cells): IC50 PCS-201-012 fibroblasts / IC50 HeLa, n = 4
Procedure: as §2

[7] = tested on: SH-SY5Y cells; test: WST-8 cytotoxicity assay; format: cell-based, human; details: for IC50: SH-SY5Y, 48 h, WST-8, n = 4, read-out: Cytotoxic activity IC50; for SI value (SH-SY5Y cells): IC50 PCS-201-012 fibroblasts / IC50 SH-SY5Y, n = 4
Procedure: as §2

[8] = WST-8 cytotoxicity assay; format: cell-based; details: human, PCS-201-012 healthy primary dermal fibroblast cells, PCS-201-012 healthy fibroblast cells, WST-8, n = 4, read-out: Cytotoxic activity IC50
Procedure: as §2

[9] = tested on: Pseudomonas aeruginosa ATCC 9027; test: Micro-well dilution assay (MIC); format: cell-based; details: ATCC9027
Procedure: as §1
(§3) The synthesised ureas’ minimum inhibitory concentrations (MICs) against the bacterial samples were ascertained using the microdilution broth technique. Utilising a method of twofold serial dilutions, the ureas were diluted to concentrations spanning from […]. The bacterial turbidity was set to match the 0.5 McFarland standard. In the 96-well plates, each well received 100 μl of MHB and 5 μl of the bacteria being tested. For the negative control, 195 μl of MHB and 5 μl of the bacterial sample were added. The plate was then covered with a sterile seal and allowed to incubate for 24 h at a temperature of 37 °C. Post incubation, the growth of the bacteria was assessed at 600 nm using the Fluoroskan Ascent® FL. The MIC represented the smallest amount of the chemical that effectively halted bacterial growth. This procedure was conducted three times.

[10] = tested on: Staphylococcus aureus MRSA ATCC 43300; test: Micro-well dilution assay (MIC); format: cell-based
Procedure: as §1, §3

[11] = tested on: Pseudomonas aeruginosa ATCC 9027; test: Disc diffusion method; format: cell-based; details: read-out: Disc diffusion test, inhibitory zone diameter; for zone of inhibition at 250 µM: ATCC9027, 250 µM; for zone of inhibition at 500 µM: ATCC9027, 500 µM; for zone of inhibition at 1000 µM: ATCC9027, 1000 µM
Procedure: as §1
(§4) Bacteria were adjusted to a McFarland standardisation of 0.5, equivalent to a cell density of 1.5 × 10^8/ml, and were then introduced into MHB. Subsequently, a 100 μl volume of this bacterial mixture was spread onto Mueller-Hinton agar plates. Sterile empty discs were then treated with the formulated ureas at concentrations of 1000, 500, and 250 µM. Oflaxin ([…]) and netilmicin ([…]) were used as positive controls, while DMSO served as the negative control. The plates were then placed in an incubator at 37 °C for a period ranging from 24 to 72 h, depending on the optimal conditions. Post incubation, the diameter of the inhibition zones was gauged to determine the antibacterial efficacy. This entire process was replicated three times.

[12] = tested on: Staphylococcus aureus MRSA ATCC 43300; test: Disc diffusion method; format: cell-based; details: Staphylococcus aureus, read-out: Disc diffusion test, inhibitory zone diameter
Procedure: as §1, §4

[13] = tested on: Enterococcus faecalis ATCC 49452; test: Micro-well dilution assay (MIC); format: cell-based; details: ATCC49452
Procedure: as §1, §3

[14] = tested on: Acinetobacter baumannii ATCC 1605; test: Micro-well dilution assay (MIC); format: cell-based; details: ATCC1605
Procedure: as §1, §3

[15] = tested on: Enterococcus faecalis ATCC 49452; test: Disc diffusion method; format: cell-based; details: read-out: Disc diffusion test, inhibitory zone diameter
Procedure: as §1, §4

[16] = tested on: Acinetobacter baumannii ATCC 1605; test: Disc diffusion method; format: cell-based; details: read-out: Disc diffusion test, inhibitory zone diameter
Procedure: as §1, §4

Compound | IC50 [6] | IC50 ([7]; Homo sapiens) | IC50 at 48 h [8] | MIC [9] | MIC [10] | zone of inhibition at 250 µM [11] | zone of inhibition at 500 µM [11] | zone of inhibition at 1000 µM [11] | zone of inhibition at 500 µM [12] | zone of inhibition at 1000 µM [12] | melting point | SI value (HeLa cells) [6] | SI value (SH-SY5Y cells) [7] | other results
N.N.[Cl][Pt][Cl] [Cisplatin, cis-diammineplatinum(II) dichloride] |  |  |  |  |  |  |  |  |  |  |  |  |  | IC50 [1]: > 50 µM; IC50 [2]: 10 µM; IC50 [3]: > 100 µM
COc1cccc2c1CCCC2NC(=O)NCCc1ccccc1 (stereo not drawn) [Compound 14, 1-(5-methoxy-1,2,3,4-tetrahydronaphthalen-1-yl)-3-phenethylurea] | 2.6 µM | 9.7 µM | 7.9 µM |  |  |  |  |  |  |  |  |  |  | Antibacterial properties (in words) [4]: did not display any antibacterial properties; viability at 48 h, 12.5 µM ([5]; 12.5 µM): 25.5%; viability at 48 h, 25 µM ([5]; 25 µM): 8.4%; viability at 48 h, 50 µM ([5]; 50 µM): 4.68%; viability at 48 h, 100 µM ([5]; 100 µM): 4.87%; viability at 48 h, 300 µM ([5]; 300 µM): 3.77%; viability at 48 h, 500 µM ([5]; 500 µM): 1.67%
COc1ccccc1CCNC(=O)NC1CCCc2c(OC)cccc21 (stereo not drawn) [Compound 15, 1-(5-Methoxy-1,2,3,4-tetrahydronaphthalen-1-yl)-3-(2-methoxyphenethyl)urea] | 142 µM | 8.93 µM | 226 µM | 15.6 µM (≈ 5.54 µg/mL) | 15.6 µM (≈ 5.54 µg/mL) | 5 mm | 5 mm | 5 mm | 5 mm | 6 mm | 174 to 176 °C | 1.58 | 25.26 | IC50 [7]: 8.9 µM
COc1cccc(CCNC(=O)NC2CCCc3c(OC)cccc32)c1 (stereo not drawn) [Compound 16, 1-(5-Methoxy-1,2,3,4-tetrahydronaphthalen-1-yl)-3-(3-methoxyphenethyl)urea] | 32.4 µM | 19.1 µM | > 500 µM | 7.81 µM (≈ 2.77 µg/mL) | 7.81 µM (≈ 2.77 µg/mL) | 7 mm | 8 mm | 10 mm | 6 mm | 13 mm | 155 to 157 °C | 15.4 | 26.10 | MIC [13]: 3.9 µM (≈ 1.38 µg/mL); MIC [14]: 7.81 µM (≈ 2.77 µg/mL); zone of inhibition at 500 µM ([15]; ATCC49452, 500 µM): 6 mm; zone of inhibition at 1000 µM ([15]; ATCC49452, 1000 µM): 7 mm; zone of inhibition at 250 µM [12]: 5 mm; zone of inhibition at 250 µM ([16]; ATCC1605, 250 µM): 5 mm; zone of inhibition at 500 µM ([16]; ATCC1605, 500 µM): 10 mm; zone of inhibition at 1000 µM ([16]; ATCC1605, 1000 µM): 13 mm
